Test system: rabbit ventricular myocytes
Test: Two-dimensional gel electrophoresis proteomic analysis of protein modifications in pharmacologically preconditioned isolated ventricular myocytes
Assay type: cell-based
Conditions: 100 μmol/L, 60 minutes, 37° C.; for level of ADP ribosyl hydrolase: drug treated extracts relative to matching control extracts
Source text: Protein modifications occurring during preconditioning were identified by a multi-tiered two-dimensional gel electrophoresis approach (see FIG. 3) and subsequent analysis of the cytoplasmic and TFA extracts of adenosine and diazoxide-treated isolated cardiomyocytes (n=4) at concentrations capable of invoking preconditioning. […] The modified proteins identified herein are referred to as preconditioning proteins. Ventricular myocytes from New Zealand White rabbits (weighing 1 to 2 kg) were isolated by collagenase dissociation, as described previously by Liu et al. (Circ. Res. 1996 78:443–454). Hearts were excised, then perfused with collagenase (1.0 mg/mL, Worthington type II) for 14 minutes at a maintained perfusion pressure of 75 mm Hg on a Langendorff apparatus, yielding>50% Ca^2+-tolerant ventricular myocytes. Cell isolation was followed directly by pharmacological preconditioning, which was carried out by treatment with 100 μmol/L adenosine (Sigma) or with 100 μmol/L diazoxide (Sigma) for 60 minutes in a 37° C. water bath, as described previously by Liu et al. supra. Untreated cells were prepared concurrently as drug-free controls. Equivalent 25 μL aliquots of cells (containing ˜30 mg/mL of protein as determined by Lowry assay (Lowry, O. H. J. Biol. Chem. 1951 193:265–275) were frozen and stored at −80° C. until analysis. All steps in this Protein extraction protocol, referred to herein as “In Sequence” and depicted in FIG. 3, produce physiological pH (cytosolic) and acidic pH enriched extracts were carried out at 4° C., and all centrifugations were conducted at 16000×g for 2 minutes at 4° C. Myocyte proteins were first extracted by two rounds of homogenization in 100 μL of HEPES extraction buffer, consisting of (in mmol/L) HEPES 25 (pH 7.4), NaF 50, Na3VO4 0.25, phenylmethylsulfonyl fluoride 0.25, EDTA 0.5, and (in μmol/L) leupeptin 1.25, pepstatin A 1.25. Following homogenization and centrifugation, the supernatants were pooled and saved as the cytosolic extract. The remaining pellet was subjected to further extraction by two rounds of homogenization in 50 μL of acid extraction buffer, consisting of 1% v/v trifluoroacetic acid (TFA) and 1 mmol/L Tris(2-carboxyethylphosphine)hydrochloride (pH ˜2.0). Supernatants were again pooled, and saved as the acid extract. The two extracts and remaining pellet were frozen and stored at −80° C. Isoelectric focusing (IEF) of cytosolic and TFA extracts were carried out using a Protean® IEF cell (Bio-Rad) according to the manufacturer's protocol. Protein loads ranging from 5 up to 250 μg per gel were added to the following rehydration buffers: for cytosolic extracts, 8 M urea, 2.5 M thiourea, 4% CHAPS, 2 mM EDTA, and 25 mM DTT, and in the case of pH 6–9 strips, CHAPS and DTT were substituted by 4% ASB-14 and 5.4% (w/v) 2-hydroxyethyl disulfide, respectively; for acidic extracts, 8 M urea, 4% CHAPS, and 25 mM DTT. Immobilized pH gradient (IPG) Ready Strips™ (170 mm pH 4–7, 6–9, or 3–10 linear gradient, Bio-Rad) were actively rehydrated at 50 volts (V) for 10 hours to enhance protein uptake, then subjected to the following conditions using a rapid voltage ramping method: 100 V for 25 Volt-hours (Vh), 500 V for 125 Vh, 1000 V for 250 Vh, and 8000 V for 65 kVh. A Peltier temperature control platform maintained gels at 20° C. throughout IEF. Focused gels were stored at −20° C. prior to sodium dodecyl sulfate-polyacrylamide gel electrophoresis (SDS-PAGE). For SDS-PAGE, IPG strips were incubated for 10 minutes in equilibration buffer (50 mmol/L Tris-HCl, pH 8.8, 6 mol/L urea, 30% v/v glycerol, 2% w/v SDS) supplemented with 10 mg/mL DTT, followed by a 10 minute incubation in equilibration buffer supplemented with 25 mg/mL iodoacetamide, then rinsed once with SDS-PAGE buffer (25 mmol/L Tris, 192 mmol/L glycine, pH 8.3, 0.1% w/v SDS). IEF strips were then embedded in a 5% acrylamide stacking gel and the proteins were resolved by 10 or 12.5% SDS-PAGE using a Protean® II XL system (Bio-Rad). […]

[1] = 2-D gels vs untreated control myocytes, n=4

| Structure (SMILES) | level of 24 kDa subunit (mitochondrial precursor) of Complex I [1] | level of 30 kDa subunit (mitochondrial precursor) of Complex I [1] | level of HSP27 [1] | level of NG-dimethylarginine dimethylaminohydrolase (DDAH) [1] | level of RNA binding protein regulatory subunit (DJ-1) [1] | level of aldehyde dehydrogenase [1] | level of core protein I of Complex III [1] | level of isocitrate dehydrogenase NAD+ specific subunit alpha (IDH) [1] | level of metaxin 2 [1] | level of prohibitin [1] | level of succinyl CoA ligase [ADP forming] beta chain [1] | level of δ chain (mitochondrial precursor) of the F1 portion of Complex V [1] | extent of post-translational modification of the β chain of F1 portion (mitochondrial precursor) of Complex V (2-D gels, silver stain or western blot, vs control, two additional more acidic spots) | level of ADP ribosyl hydrolase | level of 23 kDa subunit (mitochondrial precursor) of Complex I [1] | level of d chain (mitochondrial precursor) of the F0 portion of Complex V [1] | level of dihydrolipoamide succinyltransferase [1] | post-translational modification of protein X (E3 binding protein of the pyruvate dehydrogenase complex) [1] | sarcalumenin (58 kDa isoform) levels (HEPES extract, 2-D gels vs untreated control myocytes) |
| --- | --- | --- | --- | --- | --- | --- | --- | --- | --- | --- | --- | --- | --- | --- | --- | --- | --- | --- | --- |
| Nc1ncnc2c1ncn2[C@@H]1O[C@H](CO)[C@@H](O)[C@H]1O [adenosine] | increases | increases | did not, however, observe a change | decreases | increased | increased | decreased | increase | reduced | increase | increase | increases | increase | increased | – | – | – | – | – |
| CC1=NS(=O)(=O)c2cc(Cl)ccc2N1 [diazoxide] | increased | increased | increase | increased | increased | increased | decreased | increases | reduced | – | – | increased | – | increased | increased | increased | decrease | increases | decrease |
